Here are results for eight compounds from patent US20150011751A1, “NOVEL TRIAZINE DERIVATIVE” (CARNA BIOSCIENCES, INC., priority 2012, published 2015).

Assay [1] deals with intracellular BTK (pY223) in Ramos cells. As to the kind of experiment: Inhibition of self-phosphorylation activity of intracellular BTK in IgM-stimulated Ramos cells (Western blot, Test Example 3-1). In kind it is cell-based. The settings on record: test compound 1 μM, 1 hour, IgM 10 μg/mL 10 minutes. From the text:
Combinations of primary antibody and secondary antibody as well as dilute concentrations used in the present test are as follows.

The test system is the same in assay [2]. As to the kind of experiment: cells. The settings on record: Homo sapiens, read-out: BTK phosphorylation inhibitory activity.
Experimental: (§1) The supernatant was recovered by a centrifugal operation (at 15,000 rpm for 15 minutes) and the amount of protein was quantitatively determined. The supernatant was mixed with SDS-sample buffer and the mixture was reacted at 95° C. for 5 minutes thereby modifying the protein to obtain a sample solution. […] Thereafter, the protein in the gel was transferred to a PVDF membrane, using an iBlot gel transfer system (Life Technologies Corporation).
(§2) The unreacted secondary antibody was washed with TBST buffer and reacted according to the attached protocol, using ECL Prime Western Blotting Detection System (GE Healthcare Ltd.), and then each band was detected by chemiluminescence using a CCD camera (ATTO, Light-CaptureII). The detected band was digitized by densitometry (ATTO CS Analyzer ver.3.0) and an inhibition ratio was calculated from the intensity of a band in each group on the assumption that luminescence of a band of phosphorylated BTK of the compound no-addition and IgM stimulated group is 100%, whereas, luminescence of a band of phosphorylated BTK of the compound no-addition and IgM non-stimulated group is 0%. Each band of phosphorylated BTK was corrected by the total BTK.
(§3) Thereafter, IgM (Invitrogen, H15100) diluted with the medium was added so that the final concentration becomes 10 μg/mL, followed by incubation at 37° C. for 10 minutes.
(§4) The intracellular BTK autophosphorylation inhibiting activity was indicated with the mark “***” when 70% or more, with the mark “**” when 50% or more and less than 70%, and with the mark “*” when 30% or more and less than 50%.
The next assay deals with Dephosphorylated BTK (Homo sapiens, UniProt Q06187). Description: Test of activity inhibition against dephosphorylated BTK (mobility shift assay).
Dephosphorylated BTK, sequence (Q06187 whole entry): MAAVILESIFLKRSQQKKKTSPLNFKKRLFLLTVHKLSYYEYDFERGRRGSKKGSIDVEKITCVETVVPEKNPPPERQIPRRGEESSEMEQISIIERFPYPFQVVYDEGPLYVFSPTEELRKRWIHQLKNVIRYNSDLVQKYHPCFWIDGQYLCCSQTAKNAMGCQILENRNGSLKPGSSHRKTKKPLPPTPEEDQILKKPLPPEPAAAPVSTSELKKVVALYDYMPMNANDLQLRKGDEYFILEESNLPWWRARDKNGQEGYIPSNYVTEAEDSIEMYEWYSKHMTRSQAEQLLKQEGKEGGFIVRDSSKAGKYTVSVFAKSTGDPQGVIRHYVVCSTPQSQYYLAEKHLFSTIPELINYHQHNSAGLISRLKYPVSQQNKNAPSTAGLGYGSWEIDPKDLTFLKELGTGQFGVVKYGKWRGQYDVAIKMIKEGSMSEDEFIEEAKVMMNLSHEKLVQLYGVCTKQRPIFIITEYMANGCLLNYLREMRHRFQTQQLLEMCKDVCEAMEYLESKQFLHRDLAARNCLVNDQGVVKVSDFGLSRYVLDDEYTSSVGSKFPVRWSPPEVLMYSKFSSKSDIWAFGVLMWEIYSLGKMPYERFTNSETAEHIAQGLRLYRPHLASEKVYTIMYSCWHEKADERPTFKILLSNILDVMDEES
The target of the next assay is BTK (Homo sapiens, UniProt Q06187). Description: Test of activity inhibition against BTK (mobility shift assay, QuickScout Screening Assist MSA).
BTK, sequence (Q06187 whole entry): as above
Assay [3] relates to intracellular BTK (pY223) in Ramos cells. The settings on record: test compound 0.3 μM, 1 hour, IgM 10 μg/mL 10 minutes.
Experimental: as §1, §2, §3, §4

SMILES strings stand for the structures. pIC50: −log10 of the molar value.

Experimental for Dephosphorylated BTK: Kinase activity was measured by a mobility shift assay (MSA) method using QuickScout Screening Assist (trademark) MSA (commercially available kit, manufactured by Carna Biosciences, Inc.). FITC-labeled SRCtide peptide supplied with the kit was used as a substrate of a kinase reaction.
IC50 value was calculated by regression analysis of the inhibition ratio and the test compound concentration (logarithm).
Dephosphorylated BTK was obtained by adding a A protein phosphatase (Code No. P0753S, manufactured by New England BioLabs Inc.) and MnCl2 to a biotinylated BTK protein BTN-BTK (manufactured by Carna Biosciences, Inc.) enzyme solution so as to adjust the concentrations to 10 U/μg and 2 mM, respectively, reacting the mixture at 4° C. overnight, removing the A protein phosphatase through anti-[sequence]-tag antibody agarose gel chromatography, and performing buffer exchange using 10DG Desalting Column.

The pIC50 is the negative decadic logarithm of the IC50, by convention in mol/L. For the compound `COc1cc(Nc2ncnc(-c3cccc(NC(=O)c4ccc(C(C)(C)C)cc4)c3C)n2)cc(OC)c1OC` [Example 1, 4-(tert-Butyl)-N-(2-methyl-3-[4-[(3,4,5-trimethoxyphenyl)amino]-1,3,5-triazin-2-yl]phenyl)benzamide], the “BTK phosphorylation inhibition ratio” value in assay [1] was determined as 107%. The inhibition at 0.3 µM in assay [2] is > 70%. The pIC50 was 8.68 at Dephosphorylated BTK and 8.00 at BTK.
As for `Cc1c(NC(=O)c2ccc(C(C)(C)C)cc2)cccc1-c1ncnc(Nc2ccc(C(=O)N3CCN(C)CC3)cc2)n1` [Example 4, 4-(tert-Butyl)-N-[2-methyl-3-(4-{[4-(4-methylpiperazine-1-carbonyl)phenyl]amino}-1,3,5-triazin-2-yl)phenyl]benzamide], the results for the pIC50 at Dephosphorylated BTK and on BTK were 8.38 and 8.00, respectively.
With `Nc1nc(Nc2ccc(N3CCOCC3)cc2)nc(-c2cccc(N3CCc4cc(C5CC5)cc(F)c4C3=O)c2CO)n1` [Example 44, 2-(3-{4-Amino-6-[(4-morpholinophenyl)amino]-1,3,5-triazin-2-yl}-2-(hydroxymethyl)phenyl)-6-cycropropyl-8-fluoro-3,4-dihydroisoquinolin-1(2H)-one], the “BTK phosphorylation inhibitory activity” value in assay [3] is listed as “*** (70% or more)”.
Take `Cc1c(NC(=O)c2ccc(C(C)(C)C)cc2)cccc1-c1ncnc(Nc2ccc(C(=O)N3CCOC(CN)C3)cc2)n1` (centres unmarked) [Example 7, N-{3-[4-({4-[2-(Amino-methyl)morpholine-4-car-bonyl]phenyl}amino)-1,3,5-triazin-2-yl]-2-methylphenyl}-4-(tert-butyl)benzamide]: the pIC50 was 8.60 at Dephosphorylated BTK and 8.09 at BTK.
Regarding `Cc1c(NC(=O)c2ccc(C(C)(C)C)cc2)cccc1-c1ncnc(Nc2ccc(C(=O)NCCN3CCOCC3)cc2)n1` [Example 8, 4-(tert-Butyl)-N-{2-meth-yl-3-[4-({4-[(2-morpho-linoethyl)carbamoyl]phenyl}amino)-1,3,5-triazin-2-yl]phenyl} benzamide], the pIC50 is 8.46 on Dephosphorylated BTK and 7.88 on BTK.
As for `Cc1c(NC(=O)c2ccc(C(C)(C)C)cc2)cccc1-c1nc(N)nc(Nc2ccc(C(=O)N3CCOC(CO)C3)cc2)n1` (centres unmarked) [Example 30, N-{3-[4-Amino-6-({4-[2-(hydroxymethyl)morpho-line-4-carbonyl]phe-nyl}amino)-1,3,5-tria-zin-2-yl]-2-methylphe-nyl}-4-(tert-butyl)benz-amide], the inhibition at 0.3 µM in assay [2] was > 70%. At Dephosphorylated BTK, the pIC50 was 8.89.
For `Cc1c(NC(=O)c2ccc(C(C)(C)C)cc2)cccc1-c1ncnc(Nc2ccc(C(=O)N3CCC(O)CC3)cc2)n1` [Example 9, 4-(tert-Butyl)-N-[3-(4-{[4-(4-hydroxypiper-idine-1-carbonyl)phenyl]amino}-1,3,5-triazin-2-yl)-2-methylphen-yl]benzamide], the pIC50 is 8.68 on Dephosphorylated BTK and 7.90 at BTK.
Regarding `Cc1c(NC(=O)c2ccc(C(C)(C)C)cc2)cccc1-c1ncnc(Nc2ccc(C(=O)N3CCN(CCO)CC3)cc2)n1` [Example 10, 4-(tert-Butyl)-N-{3-[4-({4-[4-(2-hydroxyeth-yl)piperazine-1-carbo-nyl]phenyl}amino)-1,3,5-triazin-2-yl]-2-meth-ylphenyl}benzamide], the pIC50 at Dephosphorylated BTK was 8.49; at BTK it was 7.89.
